{
  "source": "patent US20180289655A1",
  "about": "“Methods and Compositions for the Intravenous Administration of Fumarates for the Treatment of Neurological Diseases” (Biogen MA Inc., priority 2015, published 2018)",
  "key": {"[1]": {"assay": "MMF exposure in plasma and tissues after DMF PO or IV once daily for 5 days (LC-MS/MS)", "assay_type": "in vivo, Sprague-Dawley rats", "description": "On Day 5 of the study 3 time points were evaluated: 10 minutes, 2 hours, and 6 hours after dosing, as illustrated in the timeline. At each time point, 5 animals from each group were sacrificed. At the 2 and 6 hour time points, the tissue samples from groups E, F, I, and J from each animal were split, with half of the tissue being processed for MMF exposure, and half processed for qRT-PCR. Note vehicle groups (C, D, G, and H) were not processed for MMF measurement and only used for qRT-PCR.\nAt 10 minutes, 2 and 6 hours, plasma and tissues (forebrain, cerebellum, jejunum, kidney and spleen) from cohorts of animals (Groups A, B, E, F, I, J) were collected to measure the concentration of MMF in the sample. MMF was quantitated using a non-GLP, but validated LC/MS/MS assay. Statistical comparisons were performed using the non-parametric Mann-Whitney U test.\nAs mentioned previously, Sprague-Dawley rats were sacrificed and terminal plasma and tissue samples were collected 10 minutes, 2 and 6 hours after dosing and MMF exposure in plasma, brain, cerebellum, jejunum and kidney was determined as follows. Tissues were snap frozen on dry ice after dissection. Immediately prior to blood collection, 4 μL of 250 mg/mL stock mixture of sodium fluoride (NaF) in water was added to each 100 μL of blood collected in a lithium heparin tube. The stock NaF mixture was prepared on the day of use and kept as a homogenous suspension through continuous stirring on a stir plate. Whole blood was added to the tube, and then samples were inverted several times and stored on wet ice (2° C. to 8° C.). All samples were centrifuged within 30 minutes of collection at 4° C. for 15 minutes at 1500×g (4200 RPM). Plasma was then transferred into pre-chilled tubes, immediately frozen on dry ice and maintained frozen (≤−80° C.) until analysis.\nAliquots (50 μL) of either plasma or tissue homogenate samples were extracted by protein precipitation with acetonitrile containing methylethyl fumarate or −4C13-MMF as the internal standard. For tissue samples, aliquots of homogenization solution (‘blank’ plasma with 12.5 mg/mL of NaF) were added to the tissue samples. The tissue samples were homogenized at 6.5 m/s for 60 seconds on a Fast Prep Tissue Homogenizer prior to protein precipitation. Concentrations of MMF in plasma, forebrain, cerebellum, jejunum, spleen and kidney samples were determined using qualified LC-MS/MS assays in the respective matrices. Data collection and integration was accomplished using an API 5500 triple quadrupole mass spectrometer with a turbo ion spray interface (AB Sciex, Foster City, Calif.), and Analyst software (version 1.6.1). The peak area ratios of MMF relative to its internal standard were used to construct a standard curve using a quadratic regression with a 1/x^2 weighting. The lower limit of quantitation (LLOQ) was 10 ng/mL for all four assays. The performances of the assays were monitored by the precision and accuracy of the standards and quality control samples."}, "[2]": {"assay": "Tail histopathology after 5 days of once daily DMF IV tail vein dosing", "assay_type": "in vivo, Sprague-Dawley rats", "conditions": "5 days of repeated once daily tail vein injections"}, "[3]": {"assay": "Solubility of DMF in HPbCD, Captisol, saline and D5W at ambient temperature", "assay_type": "physicochemical", "conditions": "thermodynamic from solid", "description": "Solubility of DMF in these media was determined at ambient temperature by preparing a saturated solution."}, "[4]": {"assay": "Solubility of DMF in 20% Captisol", "assay_type": "physicochemical", "conditions": "aqueous with cosolvent or surfactant or cyclodextrin, thermodynamic from solid, room temperature (heated at 50° C., cooled, filtered)", "description": "The preparations were heated at 50° C. for 5-10 min, followed by cooled to room temperature."}, "[5]": {"assay": "Tail histopathology for DMF IV multi-dose tolerability", "assay_type": "in vivo, C57BL/6 mice", "conditions": "Study 3, DMF IV 30 mg/kg once a day for 5 consecutive days", "description": "Tissue samples were preserved in 10% neutral buffered formalin (NBF) and then transferred to the Translational Pathology Laboratory for processing into paraffin blocks, slide preparation, and hematoxylin and eosin staining. Histopathology evaluation of the stained slides was performed by the Biogen Idec Comparative Pathology department (data not provided herein).\nA CBC with differential panel was performed at 10 minutes post-last dose via facial vein bleeding, and at 2 hours after the last dose, pharmacodynamic Nrf2 transcriptional responses were analyzed in tissues from the same animals. Histopathology was also performed on regions of the tail in a pilot toxicology study."}, "[6]": {"assay": "Solubility of DMF in aqueous media at 37° C.", "assay_type": "physicochemical", "conditions": "thermodynamic from solid"}},
  "note": "Entries after “also recorded” stand apart in the source; their conditions may differ. Counter-ions that a name gives are not always drawn.",
  "data": [
    {"compound": "COC(=O)/C=C/C(=O)OC", "note": "[DMF, dimethyl fumarate]", "values": [
      {"measurement": "MMF level in any tissue", "setting": "[1]; 6 hours after IV or PO DMF dosing", "result": "no detectable MMF in any tissue"},
      {"measurement": "MMF level in forebrain or cerebellum", "setting": "[1]; 6 hours after dosing, PO or IV", "result": "undetectable"},
      {"measurement": "MMF level in any tissue", "setting": "[1]; DMF IV 30 mg/kg, 2 hours", "result": "no MMF was detectable in any tissue"},
      {"measurement": "MMF level in brain", "setting": "[1]; DMF IV 30 mg/kg, 2 hours", "result": "below the level of quantitation"},
      {"measurement": "MMF level in plasma", "setting": "[1]; DMF IV 30 mg/kg, 6 hours", "result": "not detectable"},
      {"measurement": "MMF levels in kidney, jejunum and spleen", "setting": "[1]; DMF PO 100 mg/kg, 2 hours", "result": "markedly decreased, but detectable"},
      {"measurement": "MMF levels in jejunum, kidney and spleen, PO versus IV", "setting": "[1]; PO 100 mg/kg vs IV 30 mg/kg, 10 minutes", "result": "these differences were not significant"},
      {"measurement": "Histopathology findings in the tail", "setting": "[2]", "result": "no treatment-related histopathology findings in the tail"},
      {"measurement": "solubility at 24 h", "setting": "[3]; aqueous with cosolvent or surfactant or cyclodextrin, 40% Captisol, pH 4.42", "result": 7900, "unit": "µg/mL"},
      {"measurement": "solubility at 24 h", "setting": "[3]; pH 3.9, aqueous with cosolvent or surfactant or cyclodextrin, 40% HPbCD, pH 3.90", "result": 15100, "unit": "µg/mL"},
      {"measurement": "solubility at 24 h", "setting": "[3]; pH 4.3, aqueous with cosolvent or surfactant or cyclodextrin, 5% HPbCD, pH 4.30", "result": 4030, "unit": "µg/mL"},
      {"measurement": "solubility at 24 h", "setting": "[3]; pH 4.8, aqueous with cosolvent or surfactant or cyclodextrin, 5% Captisol, pH 4.80", "result": 3180, "unit": "µg/mL"},
      {"measurement": "solubility at 24 h", "setting": "[3]; saline or isotonic, D5W (5% Dextrose in water), pH 6.32", "result": 2390, "unit": "µg/mL"},
      {"measurement": "solubility at 24 h", "setting": "[3]; saline or isotonic, Saline (0.9% NaCl), pH 6.67", "result": 2080, "unit": "µg/mL"},
      {"measurement": "solubility", "setting": "[4]", "result": 4110, "unit": "µg/mL"},
      {"measurement": "Tail histology near the injection site", "setting": "[5]", "result": "changes similar to that which was observed in vehicle control mice; also recorded: did not reveal any treatment-related findings"},
      {"measurement": "solubility at 24 h", "setting": "[6]; pH 2 citrate buffer, pH 2, aqueous buffer, pH 2 Citrate Buffer, pH 1.93, read-out: Solubility", "result": 3770, "unit": "µg/mL"},
      {"measurement": "solubility at 24 h", "setting": "[6]; pH 2 citrate buffer, pH 2, aqueous buffer, pH 2 Citrate Buffer, read-out: Solubility Description", "result": "1000 to 10000", "unit": "µg/mL"},
      {"measurement": "solubility at 24 h", "setting": "[6]; pH 4 citrate buffer, pH 4, aqueous buffer, pH 4 Citrate Buffer, pH 3.89, read-out: Solubility", "result": 3320, "unit": "µg/mL"},
      {"measurement": "solubility at 24 h", "setting": "[6]; pH 4 citrate buffer, pH 4, aqueous buffer, pH 4 Citrate Buffer, read-out: Solubility Description", "result": "1000 to 10000", "unit": "µg/mL"},
      {"measurement": "solubility at 24 h", "setting": "[6]; pH 6 citrate buffer, pH 6, aqueous buffer, pH 6 Citrate Buffer, pH 6.01, read-out: Solubility", "result": 3470, "unit": "µg/mL"},
      {"measurement": "solubility at 24 h", "setting": "[6]; pH 6 citrate buffer, pH 6, aqueous buffer, pH 6 Citrate Buffer, read-out: Solubility Description", "result": "1000 to 10000", "unit": "µg/mL"},
      {"measurement": "solubility at 24 h", "setting": "[6]; pH 8 borate buffer, pH 8, aqueous buffer, pH 8 Borate Buffer, pH 5.44, read-out: Solubility", "result": 4020, "unit": "µg/mL"},
      {"measurement": "solubility at 24 h", "setting": "[6]; pH 8 borate buffer, pH 8, aqueous buffer, pH 8 Borate Buffer, read-out: Solubility Description", "result": "1000 to 10000", "unit": "µg/mL"},
      {"measurement": "solubility at 24 h", "setting": "[6]; pH 10 borate buffer, pH 10, aqueous buffer, pH 10 Borate Buffer, pH 5.49, read-out: Solubility", "result": 3570, "unit": "µg/mL"},
      {"measurement": "solubility at 24 h", "setting": "[6]; pH 10 borate buffer, pH 10, aqueous buffer, pH 10 Borate Buffer, read-out: Solubility Description", "result": "1000 to 10000", "unit": "µg/mL"},
      {"measurement": "solubility at 24 h", "setting": "[6]; simulated gastric fluid (SGF, without pepsin), pH 6.9, simulated gastric fluid, SGF (without pepsin), pH 6.90, read-out: Solubility", "result": 2950, "unit": "µg/mL"},
      {"measurement": "solubility at 24 h", "setting": "[6]; simulated gastric fluid without pepsin, pH 1.2, simulated gastric fluid, SGF (without pepsin), read-out: Solubility Description", "result": "1000 to 10000", "unit": "µg/mL"},
      {"measurement": "solubility at 24 h", "setting": "[6]; simulated intestinal fluid (SIF, without pancreatin), pH 1.2, fassgf or other biorelevant, SIF (without pancreatin), pH 1.20, read-out: Solubility", "result": 3110, "unit": "µg/mL"},
      {"measurement": "solubility at 24 h", "setting": "[6]; simulated intestinal fluid without pancreatin, pH 6.9, fassgf or other biorelevant, SIF (without pancreatin), read-out: Solubility Description", "result": "1000 to 10000", "unit": "µg/mL"},
      {"measurement": "solubility at 24 h", "setting": "[6]; water, pH 5.2, water, Water, pH 5.20, read-out: Solubility", "result": 2840, "unit": "µg/mL"},
      {"measurement": "solubility at 24 h", "setting": "[6]; water, pH 5.2, water, Water, read-out: Solubility Description", "result": "1000 to 10000", "unit": "µg/mL"}
    ]}
  ]
}
